Test results: patent US20260250318A1, “COMPOSITIONS AND METHODS FOR CROSSING THE BLOOD BRAIN BARRIER” (VOYAGER THERAPEUTICS, INC., priority 2022, published 2026)

Test system: brain
Assay: NGS fold enrichment of synthetic library (passage 3) in BALB/c mice, first cross-species screen
Format: in vivo
Conditions: synthetic library passage 3, intravenous, RNA NGS, brain of BALB/c mice, relative to wild-type AAV9
Outline: (§1)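 Fold enrichment versus wild-type AAV9 was derived by NGS of RT-PCR-amplified RNA from nervous tissue, collected e.g. 28 days after IV dosing […]. The library (passage 3) was given to two NHPs aged 2-4 years and to 6-8-week BALB/c and C57Bl/6 mice (n=3 each).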

Sequence | Fold enrichment over AAV9 in the brain of Mice (BALB/c)
GSGQLVTSGPNQQT | 0.433 fold
GSGQNQHHSVSQQT | 0.334 fold
GRVLHSHAGQNQQT | 0.908 fold
GSFYPSSTGQNQQT | 0.277 fold
GSGQSHRSELNQQT | 0.256 fold
GSGLGRAPVQNQQT | 0.383 fold
GSGQNQQPHLKSLT | 0.740 fold
GSGQNQYSSTNPQT | 0.535 fold
GSGQIVSTQTNQQT | 0.512 fold
GSGYASHVQQNQQT | 0.758 fold
GSGQNQQTRLVDLT | 0.490 fold
GSVGSRPVGQNQQT | 0.716 fold
GSLVSQGAGQNQQT | 1.246 fold
GSGQDRHIVQNQQT | 0.162 fold
GSITLIPSGQNQQT | 0.435 fold

Same assay, conditions: synthetic library passage 3, intravenous, RNA from brain of BALB/c mice, NGS, relative to wild-type AAV9

Sequence | Fold enrichment over AAV9 in the brain of Mice (BALB/c)
GSGASESHRQNQQT | 0.313 fold
GNRDRPSSGQNQQT | 0.178 fold
GSGQLSGTPQNQQT | 0.643 fold
GHAHYQASGQNQQT | 0.745 fold
GVGVITSSGQNQQT | 0.777 fold
GSGQNQQIGESRMT | 0.453 fold
GSGQNQRTMVATQT | 0.554 fold
GSGQNQQGTGVSHT | 0.749 fold
GSGNMHASRQNQQT | 0.687 fold
GSGEKVHSGQNQQT | 0.671 fold
GSGQNQQMPGLSST | 0.181 fold

Test system: brain
Assay: NGS fold enrichment of synthetic library (passage 3) in C57Bl/6 mice, first cross-species screen
Format: in vivo
Conditions: synthetic library passage 3, intravenous, RNA NGS, brain of C57Bl/6 mice, relative to wild-type AAV9
Outline: as §1

Sequence | Fold enrichment over AAV9 in the brain of Mice (C57Bl/6)
GSGQLVTSGPNQQT | 0.964 fold
GSGQNQHHSVSQQT | 0.605 fold
GRVLHSHAGQNQQT | 1.294 fold
GSFYPSSTGQNQQT | 0.420 fold
GSGQSHRSELNQQT | 0.668 fold
GSGLGRAPVQNQQT | 0.841 fold
GSGQNQQPHLKSLT | 1.096 fold
GSGQNQYSSTNPQT | 0.544 fold
GSGQIVSTQTNQQT | 0.453 fold
GSGYASHVQQNQQT | 1.157 fold
GSGQNQQTRLVDLT | 1.268 fold
GSVGSRPVGQNQQT | 1.182 fold
GSLVSQGAGQNQQT | 1.436 fold
GSGQDRHIVQNQQT | 0.285 fold
GSITLIPSGQNQQT | 0.326 fold

Same assay, conditions: synthetic library passage 3, intravenous, RNA from brain of C57Bl/6 mice, NGS, relative to wild-type AAV9

Sequence | Fold enrichment over AAV9 in the brain of Mice (C57Bl/6)
GSGASESHRQNQQT | 0.325 fold
GNRDRPSSGQNQQT | 0.298 fold
GSGQLSGTPQNQQT | 1.025 fold
GHAHYQASGQNQQT | 0.803 fold
GVGVITSSGQNQQT | 1.296 fold
GSGQNQQIGESRMT | 0.890 fold
GSGQNQRTMVATQT | 0.649 fold
GSGQNQQGTGVSHT | 1.417 fold
GSGNMHASRQNQQT | 0.782 fold
GSGEKVHSGQNQQT | 0.862 fold
GSGQNQQMPGLSST | 0.234 fold

Test system: brain, spinal cord, and DRG of the NHPs
Assay: NGS fold enrichment of synthetic library (passage 3) in NHPs, first cross-species screen
Format: in vivo, cynomolgus macaques (Macaca fascicularis)
Conditions: synthetic library passage 3, intravenous, RNA NGS, brain of NHPs, relative to wild-type AAV9
Outline: as §1

Sequence | Fold enrichment over AAV9 in the brain of NHPs
GSGQLVTSGPNQQT | 1.669 fold
GSGQNQHHSVSQQT | 1.623 fold
GRVLHSHAGQNQQT | 2.513 fold
GSFYPSSTGQNQQT | 2.047 fold
GSGQSHRSELNQQT | 1.585 fold
GSGLGRAPVQNQQT | 2.503 fold
GSGQNQQPHLKSLT | 1.457 fold
GSGQNQYSSTNPQT | 1.542 fold
GSGQIVSTQTNQQT | 1.456 fold
GSGYASHVQQNQQT | 2.146 fold
GSGQNQQTRLVDLT | 2.342 fold
GSVGSRPVGQNQQT | 1.442 fold
GSLVSQGAGQNQQT | 2.188 fold
GSGQDRHIVQNQQT | 1.527 fold
GSITLIPSGQNQQT | 3.361 fold

Same assay, conditions: synthetic library passage 3, intravenous, RNA NGS, spinal cord of NHPs, relative to wild-type AAV9

Sequence | Fold enrichment over AAV9 in the spinal cord of NHPs
GSGQLVTSGPNQQT | 5.271 fold
GSGQNQHHSVSQQT | 3.700 fold
GRVLHSHAGQNQQT | 0.826 fold
GSFYPSSTGQNQQT | 2.374 fold
GSGQSHRSELNQQT | 11.974 fold
GSGLGRAPVQNQQT | 2.214 fold
GSGQNQQPHLKSLT | 5.016 fold
GSGQNQYSSTNPQT | 2.251 fold
GSGQIVSTQTNQQT | 1.103 fold
GSGYASHVQQNQQT | 3.038 fold
GSGQNQQTRLVDLT | 9.348 fold
GSVGSRPVGQNQQT | 11.363 fold
GSLVSQGAGQNQQT | 4.414 fold
GSGQDRHIVQNQQT | 11.068 fold
GSITLIPSGQNQQT | 3.917 fold

Same assay, conditions: synthetic library passage 3, intravenous, RNA from brain of NHPs, NGS, relative to wild-type AAV9

Sequence | Fold enrichment over AAV9 in the brain of NHPs
GSGASESHRQNQQT | 1.350 fold
GNRDRPSSGQNQQT | 1.239 fold
GSGQLSGTPQNQQT | 1.185 fold
GHAHYQASGQNQQT | 1.377 fold
GVGVITSSGQNQQT | 1.348 fold
GSGQNQQIGESRMT | 1.279 fold
GSGQNQRTMVATQT | 1.130 fold
GSGQNQQGTGVSHT | 1.371 fold
GSGNMHASRQNQQT | 1.238 fold
GSGEKVHSGQNQQT | 1.289 fold
GSGQNQQMPGLSST | 1.204 fold

Same assay, conditions: synthetic library passage 3, intravenous, RNA from spinal cord of NHPs, NGS, relative to wild-type AAV9

Sequence | Fold enrichment over AAV9 in the spinal cord of NHPs
GSGASESHRQNQQT | 0.850 fold
GNRDRPSSGQNQQT | 3.947 fold
GSGQLSGTPQNQQT | 1.382 fold
GHAHYQASGQNQQT | 7.299 fold
GVGVITSSGQNQQT | 0.918 fold
GSGQNQQIGESRMT | 0.103 fold
GSGQNQRTMVATQT | 1.122 fold
GSGQNQQGTGVSHT | 4.295 fold
GSGNMHASRQNQQT | 3.878 fold
GSGEKVHSGQNQQT | 0.062 fold
GSGQNQQMPGLSST | 1.887 fold
